In patent publication US20250115628A1, “FLUORINATED FLUOROPHORES” (HOWARD HUGHES MEDICAL INSTITUTE, priority 2023, published 2025):
Read-outs that look alike come from different tables or passages of the source.

Legend:
[1] = system: U2OS cells stably expressing HaloTag®-histone H2B fusion protein; assay: Loading experiments with NIR-excited HaloTag® ligands (nuclear fluorescence); assay type: cell-based; conditions: 200 nM; live cells expressing HaloTag®-histone H2B
Method: U2OS cells (ATCC) and U2OS cells stably expressing an integrated HaloTag®-histone H2B fusion protein (U2OS·H2B·HaloTag®) were cultured in Dulbecco's modified Eagle medium (DMEM, phenol red-free; Life Technologies) supplemented with 10% (v/v) fetal bovine serum (FBS, Life Technologies), 1 mM GlutaMAX (Life Technologies) and maintained at 37° C. in a humidified 5% (v/v) CO2 environment. These cell lines undergo regular mycoplasma testing by the Janelia Cell Culture Facility. For mitochondrial imaging using the HaloTag® system, U2OS cells were transiently transfected using nucleofection (Lonza) with a plasmid constitutively expressing a HaloTag®-TOMM20 fusion protein, which is located on the outer mitochondrial membrane. For 4^−color imaging, U2OS·H2B·HaloTag® stable cells were transiently transfected by nucleofection with plasmids constitutively expressing a SNAP-tag®-TOMM20 fusion protein, and a GFP-SKL (SKL: serine-lysine-leucine) fusion protein, a prototypical peroxisomal matrix targeting signal. All labeled cells were imaged 18-24 h post-transfection or post-plating.
For loading curve experiments (FIG. 15C), U2OS·H2B·HaloTag® stable cells were incubated with 200 nM HaloTag® ligand conjugated dyes (31HTL, 36HTL, 38HTL, 104HTL, 106HTL, 107HTL, and 108HTL) for 0-4 h at 37° C., washed 3× with dye-free media then fixed with 4% paraformaldehyde in 0.1 M phosphate buffer, pH 7.4 for 15 min at 37° C. Confocal imaging was performed on a Leica Stellaris with an HC PL APO 40×/1.25 glycerol objective using the tunable white light laser (WLL) to excite dyes at their λabs in constant power mode. Fluorescence was quantified as the integrated density of nuclear signals in single-plane images analyzed in FIJI;^82 n=100 nuclear signals per compound.

[2] = Determination of KL-Z (lactone-zwitterion equilibrium constant); assay type: physicochemical; set-up: key: KL-Z = (εdw/εmax)/(1−εdw/εmax); εdw measured in 1:1 dioxane/water; conditions: rhodamine derivatives; 1:1 dioxane:H2O
Method: KL-Z was calculated using the following equation:^16, 18 KL-Z=(εdw/εmax)/(1−εdw/εmax). εdw is the extinction coefficient of the dyes in a 1:1 (v/v) dioxane/water solvent mixture; this dioxane/water mixture was chosen to give the maximum spread of KL-Z values across all classes of rhodamines.^18 εmax refers to the maximal extinction coefficients measured in different solvent mixtures empirically determined depending on dye type: 0.1% v/v trifluoroacetic acid in ethanol for 18, 20, 29, 34, 36, 70-72, 81-83, 93-95, 99-102, and 104; 0.1% v/v trifluoroacetic acid in 2,2,2^−trifluoroethanol for all other rhodamine variants. A accurate determination of low KL-Z values is complicated by the relatively poor sensitivity of absorbance measurements.

[3] = General UV-vis and fluorescence spectroscopy; assay type: physicochemical; conditions: rhodamine derivatives; 10 mM HEPES, pH 7.3
Method: Spectroscopy was performed using 1^−cm path length, 3.5^−mL quartz cuvettes or 1^−cm path length, 1.4^−mL semi-micro quartz cuvettes from Starna Cells. All measurements were taken at ambient temperature (22±2° C.). Absorption spectra were recorded on a Cary Model 100 spectrometer (Agilent), and fluorescence spectra were recorded on a Cary Eclipse fluorometer (Varian). The spectra, maximum absorption wavelength (labs), extinction coefficient at λabs (8), and maximum emission wavelength (em) were measured in 10 mM HEPES, pH 7.3 buffer (rhodamines and Malachite Green derivative 49) or 0.1 M NaOH (fluoresceins); the reported values for e are averages (n=3). Normalized spectra are shown for clarity.

[4] = Quantum yield determination; assay type: physicochemical; conditions: rhodamine derivatives; 10 mM HEPES, pH 7.3
Method: All reported absolute fluorescence quantum yield values (Φf) were measured using a Quantaurus-QY spectrometer (model C11374, Hamamatsu). This instrument uses an integrating sphere to determine photons absorbed and emitted by a sample. Measurements were carried out using dilute samples (A<0.1), and self-absorption corrections were performed using the instrument software.^81

[5] = system: JM8·N4 mouse embryonic stem cells stably expressing histone H2B-HaloTag® fusion proteins; assay: Single-particle tracking (SPT) experiments; assay type: cell-based; conditions: for performance in SPT experiments compared with 1HTL and 89HTL: HaloTag® ligands, 50 Hz imaging
Method: SPT experiments were carried out as previously described.^84 JM8·N4 mouse embryonic stem cells (ESCs) stably expressing histone H2B-HaloTag® fusion proteins were generated by co-expressing the PiggyBac EF1a-H2B-HaloTag®-IRES-Neo vector with the super piggyBac transposase as described previously,85 followed by G418 selection (500 μg/mL) for 2 weeks and verified by FACS sorting/confocal imaging staining with JF549-HaloTag® ligand (84HTL; 100 nM, 30 min). Cells were seeded on 25 mm #1.5 coverglass pre-cleaned with KOH and ethanol and coated with iMatrix-511 (TaKaRa #T304) or rhLaminin-521 (Gibco™ #A^29248) according to the manufacturers' instruction. All live-cell imaging experiments were conducted using an ESC imaging medium composed of FluoroBrite DMEM (ThermoFisher) plus 15% v/v ESC-qualified FBS, 1× GlutaMax, 1×NEAA, 0.1 mM 2^−mercaptoethanol, and LIF. For comparison of 59HTL and 89HTL (FIG. 13E, 13F) the histone H2B-HaloTag® ESCs were stained with 5 nM 59HTL for 1 h or 0.1 nM 89HTL for 15 min at 37° C. with 5% (v/v) CO2 to achieve sparse labeling with approximately equal localizations per region of interest (ROI), and then washed with dye-free media 3× for 30 min each wash For comparison of 40HTL, 44HTL, 1HTL, or 89HTL (FIG. 12A-12G) the histone H2B-HaloTag® ESCs were stained with 1 nM of HaloTag® ligands for 15 min at 37° C. with 5% (v/v) CO2 to achieve sparse labeling, and then washed with dye-free media 3× for 30 min each wash.
To quantify the brightness and photostability of the HaloTag® ligands, labeled cells were mounted onto a high speed motorized Nikon Eclipse Ti-E inverted microscope equipped with the following: 100× Apo TIRF 1.49 NA objective with a correction collar; four excitation laser lines (405/488/561/642 nm) and matching TIRF quad cube (405/488/561/640 nm reflection bands); automatic TIRF illuminator with motorized X axis and manual Y axis for beam positioning and focus: perfect focus 3 system; Triple DU-897 iXon Ultra EMCCD cameras on a Cairn Tri-cam emission splitter with filters 525/50 (GFP) 600/50 (RFP) and 705/72 (Cy5); humidified incubation chamber maintained at 37° C. with 5% v/v CO2 (Tokai Hit). SPT was performed at 100 Hz for the comparison of 59HTL and 89HTL (FIG. 13E, 13F) and 50 Hz for the comparison of 40HTL, 44HTL, 1HTL, or 89HTL (FIG. 12A-12G); the imaging session was performed for ˜5000 frames using 100% of maximal excitation power (˜120 mW at the fiber end before the TIRF unit). […] For the comparison of HaloTag® ligands 59HTL and 89HTL (FIG. 13E, 13F) and the comparison of compounds 40HTL, 44HTL, 1HTL, and […] (FIG. 12A-12G), the fluorophores were excited with a 647 nm laser. To minimize drift during imaging, the incubation chamber was fully thermally equilibrated, and all imaging was conducted in an isolated ultra-clean room with minimal mechanical vibrations. The microscope, laser lines, and camera integration were controlled using the Nikon NIS-Elements software. Cells with obvious movement during acquisition were removed from further analysis. SMT analysis was based on multiple target tracing 86 (MTT) with tracking parameters similar to previous work.^84 For SPT brightness (photon counts/molecule/s), intensity values from sparsely-labeled molecules were analyzed. For the comparison of HaloTag® ligands 59HTL and 89HTL (FIG. 13E, 13F): n=147,298 single-molecule events using 59HTL; n=100,392 single-molecule events using 89HTL. […]

[6] = Hill coefficient; data from the inventors' published work; cited from earlier work
[7] = fluorescein derivatives; 0.1 N NaOH; data from the inventors' published work; cited from earlier work
[8] = fluorescein derivatives; 0.1 N NaOH; data from the inventors' published work; cited from earlier work; remark: listed apart in the source

| Compound | cellular intensity [1] | ηH [6] | ε [7] | λabs [7] [nm] | λem [7] [nm] | Φf [8] | also measured |
| --- | --- | --- | --- | --- | --- | --- | --- |
| CC1=CC(C)(C)Nc2cc3c(cc21)C(c1c(F)c(C(=O)NCCOCCOCCCCCCCl)c(F)c(F)c1C(=O)O)=c1cc2c(cc1[Si]3(C)C)=NC(C)(C)C=C2C [36HTL, 4^−((2^−(2^−((6^−Chlorohexyl)oxy)ethoxy)ethyl)carbamoyl)-2,3,5^−trifluoro-6-(2,2,4,8,10,10,13,13^−octamethyl-2,10,11,13^−tetrahydrosilino [3,2^−g:5,6^−g′]diquinolin-6^−ylium-6(1H)-yl)benzoate] | relatively low intensity | – | – | – | – | – | – |
| CC1=CC(C)(C)N(C)c2cc3c(cc21)C(c1c(F)c(C(=O)NCCOCCOCCCCCCCl)c(F)c(F)c1C(=O)[O-])=c1cc2c(cc1[Si]3(C)C)=[N+](C)C(C)(C)C=C2C [38HTL, 4^−((2^−(2^−((6^−Chlorohexyl)oxy)ethoxy)ethyl)carbamoyl)-2^−(1,2,2,4,8,10,10,11,13,13-decamethyl-2,10,11,13^−tetra-hydrosilino[3,2^−g:5,6^−g′]diquinolin-6^−ylium-6(1H)-yl)-3,5,6-trifluorobenzoate] | relatively low intensity | – | – | – | – | – | – |
| CC1=CC(C)(C)N(C)c2cc3c(cc21)C(c1cc(C(=O)NCCOCCOCCCCCCCl)ccc1C(=O)[O-])=c1cc2c(cc1[Si]3(C)C)=[N+](C)C(C)(C)C=C2C [104HTL, 4^−((2-(2^−((6^−Chlorohexyl)oxy)ethoxy)ethyl)carbamoyl)-2^−(1,2,2,4,8,10,10,11,13,13^−decamethyl-2,10,11,13^−tetra-hydrosilino[3,2^−g:5,6^−g′]diquinolin-6^−ylium-6(1H)-yl)benzoate] | relatively low intensity | – | – | – | – | – | – |
| CN1CCc2cc3c(cc21)[Si](C)(C)c1cc2c(cc1=C3c1c(F)c(C(=O)NCCOCCOCCCCCCCl)c(F)c(F)c1C(=O)[O-])CC[N+]=2C [108HTL, SiRF712-HaloTag® ligand] | second highest cellular intensity | – | – | – | – | – | – |
| [2H]C1([2H])N(c2ccc3c(c2)C(C)(C)C2=CC(=[N+]4C([2H])([2H])C([2H])([2H])C([2H])([2H])C4([2H])[2H])C=CC2=C3c2c(F)c(F)c(F)c(F)c2C(=O)[O-])C([2H])([2H])C([2H])([2H])C1([2H])[2H] [compound 40, JFX637] | – | – | – | – | – | – | KL-Z [2]: 6.12; ε [3]: 147,000 M^−1cm^−1; λabs [3]: 637 nm; Φf [4]: 0.56; performance in SPT experiments compared with 1HTL and 89HTL [5]: comparable performance |
| CC1(C)C2=CC(=[N+]3CCC3)C=CC2=C(c2c(F)c(F)c(F)c(F)c2C(=O)[O-])c2ccc(N3CCC3)cc21 [compound 44, JF632] | – | – | – | – | – | – | KL-Z [2]: 3.59; ε [3]: 139,000 M^−1cm^−1; λabs [3]: 632 nm; λem [3]: 649 nm; Φf [4]: 0.54; performance in SPT experiments compared with 1HTL and 89HTL [5]: comparable performance |
| CC1(C)c2cc(O)ccc2C2(OC(=O)c3ccccc32)c2ccc(O)cc21 [compound 74, carbofluorescein] | – | 1.65 | 108,000 M^−1cm^−1 | 544 | 567 | 0.62 | – |
| C[Si]1(C)c2cc(O)ccc2C2(OC(=O)c3ccccc32)c2ccc(O)cc21 [compound 75] | – | 1.69 | 93,000 M^−1cm^−1 | 579 | 599 | 0.53 | – |
| CC1(C)c2cc(O)c(F)cc2C2(OC(=O)c3ccccc32)c2cc(F)c(O)cc21 [compound 78, Virginia Orange] | – | 1.46 | 90,900 M^−1cm^−1 | 555 | 581 | 0.40 | – |
| C[Si]1(C)c2cc(O)c(F)cc2C2(OC(=O)c3ccccc32)c2cc(F)c(O)cc21 [compound 79] | – | 1.30 | 60,900 M^−1cm^−1 | 596 | 618 | 0.42 | – |
| C[Si]1(C)c2cc(O)c(F)cc2C2(OC(=O)c3c(F)c(F)c(F)c(F)c32)c2cc(F)c(O)cc21 [compound 80] | – | 1.50 | 67,900 M^−1cm^−1 | 617 | 635 | 0.32 | – |
| JFX650-HaloTag® ligand [89HTL, reference compound] | – | – | – | – | – | – | SPT localizations over time ([5]; 100 Hz imaging): relatively rapid bleaching |
